From PubChem BioAssay (NCI) come the findings set out here.

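Where inhibition never reached the appropriate level, the endpoint shown equals the highest concentration tested. Otherwise, values were interpolated linearly from a five-concentration, 48-hour dose response in 96-well plates. TGI: total growth inhibition.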 Where only a bound is given, the exact number is not on record here.

Among the test systems are A549 NSCLC; BT-549 breast; COLO 205 colon; HCT-116 colon; HCT-15 colon; K-562 leukemia; KM12 colon; LOX IMVI melanoma; M14 melanoma; MDA-MB-231 breast; OVCAR-3 ovarian; OVCAR-5 ovarian; OVCAR-8 ovarian; PC-3 prostate; SF-295 CNS; SK-MEL-2 melanoma; U251 CNS; UACC-62 melanoma; NCI-H522 lung.
Holding throughout (experiment): NCI tumour cell line growth inhibition, 48 h

Regarding `OC1(c2ccccc2)CC2CCC(C1)N2CCc1ccccc1` (configuration not stated), the TGI was > 100 µM in the test on A549 NSCLC; > 100 µM in the test on BT-549 breast; 35.7 µM with COLO 205 colon; > 100 µM in the test on HCT-116 colon; > 100 µM with HCT-15 colon; > 100 µM in the test with K-562 leukemia. Further, the TGI in the test on KM12 colon, with LOX IMVI melanoma, with M14 melanoma, in the test on MDA-MB-231 breast, in the test with OVCAR-3 ovarian and in the test on OVCAR-5 ovarian was > 100 µM throughout. For the same molecule, the TGI with OVCAR-8 ovarian, in the test on PC-3 prostate, with SF-295 CNS, in the test with SK-MEL-2 melanoma, with U251 CNS and in the test with UACC-62 melanoma was > 100 µM in each case.
Turning to `CCOC(=O)C1C(=O)CC(O)(OCC)C(C(=O)OCC)C1c1ccc(OC)cc1` (configuration not stated), the TGI in the test with A549 NSCLC, with BT-549 breast, with COLO 205 colon, with HCT-116 colon, in the test with HCT-15 colon and in the test with K-562 leukemia was > 100 µM throughout. The TGI in the test with KM12 colon, with LOX IMVI melanoma, with MDA-MB-231 breast, in the test with NCI-H522 lung, in the test on OVCAR-3 ovarian and with OVCAR-5 ovarian was > 100 µM throughout. Besides, the TGI in the test on OVCAR-8 ovarian, in the test with PC-3 prostate, in the test with SF-295 CNS, with SK-MEL-2 melanoma, in the test on U251 CNS and in the test with UACC-62 melanoma was > 100 µM throughout.
In the case of `COc1ccc2[nH]c(CCNC(=O)c3cc([N+](=O)[O-])cc([N+](=O)[O-])c3)cc2c1`, the TGI in the test on A549 NSCLC, in the test with BT-549 breast, in the test on COLO 205 colon, in the test on HCT-116 colon, with HCT-15 colon and in the test with K-562 leukemia was > 100 µM each time. The TGI with KM12 colon, in the test with LOX IMVI melanoma, in the test with M14 melanoma, with MDA-MB-231 breast, with OVCAR-3 ovarian and in the test with OVCAR-8 ovarian was > 100 µM in each case. For the same molecule, the TGI is > 100 µM with PC-3 prostate, > 100 µM in the test with SK-MEL-2 melanoma, 78.1 µM in the test with U251 CNS and > 100 µM in the test with UACC-62 melanoma.
As for `COC(CN(C)C(=O)C(C)NC(=O)c1ccccc1)OC` (configuration not stated), the TGI with A549 NSCLC, in the test on BT-549 breast, in the test with COLO 205 colon, with HCT-116 colon, in the test on HCT-15 colon and with K-562 leukemia was > 100 µM throughout. In addition, the TGI in the test with KM12 colon, in the test with M14 melanoma, in the test on MDA-MB-231 breast, with NCI-H522 lung, in the test on OVCAR-5 ovarian and in the test on OVCAR-8 ovarian was > 100 µM throughout. The TGI with PC-3 prostate, in the test with SF-295 CNS, with SK-MEL-2 melanoma, in the test on U251 CNS and in the test with UACC-62 melanoma was > 100 µM in each case.
For `c1ccc2c(c1)ccc1nc(-c3ccc4c(c3)OCO4)c3c(c12)CCCC3`, the TGI with A549 NSCLC is > 100 µM; in the test on BT-549 breast, > 100 µM; in the test on COLO 205 colon, 41.7 µM; in the test on HCT-116 colon, > 100 µM; with HCT-15 colon, > 100 µM; in the test on K-562 leukemia it was > 100 µM. For the same molecule, the TGI with KM12 colon is 24.2 µM; in the test on M14 melanoma it was > 100 µM; with MDA-MB-231 breast, 44.3 µM; with OVCAR-3 ovarian, > 100 µM; in the test with OVCAR-5 ovarian, > 100 µM; with OVCAR-8 ovarian, > 100 µM. Moreover, the TGI was > 100 µM in the test on PC-3 prostate; > 100 µM in the test with SF-295 CNS; > 100 µM in the test with SK-MEL-2 melanoma; > 100 µM in the test with U251 CNS; 82 µM with UACC-62 melanoma.
As for `CC(=O)N=C(N=Nc1c(O)[nH]c2ccc(C)cc12)NC(C)=O`, the TGI in the test with A549 NSCLC, in the test with BT-549 breast, with COLO 205 colon, in the test on HCT-116 colon, with HCT-15 colon and in the test on K-562 leukemia was > 100 µM each time. Moreover, the TGI in the test on KM12 colon, with LOX IMVI melanoma, with M14 melanoma, with MDA-MB-231 breast, in the test with NCI-H522 lung and with OVCAR-5 ovarian was > 100 µM throughout. The TGI with OVCAR-8 ovarian, in the test with PC-3 prostate, with SF-295 CNS, in the test with SK-MEL-2 melanoma, with U251 CNS and with UACC-62 melanoma was > 100 µM each time.
Regarding `Cc1cc(-c2ccc(C(=O)O)[nH]2)on1`, the TGI in the test with A549 NSCLC, in the test on BT-549 breast, with COLO 205 colon, in the test with HCT-116 colon, in the test with HCT-15 colon and in the test on K-562 leukemia was > 100 µM in each case. For the same molecule, the TGI in the test on KM12 colon, in the test with M14 melanoma, with MDA-MB-231 breast, in the test on NCI-H522 lung, in the test with OVCAR-3 ovarian and in the test with OVCAR-5 ovarian was > 100 µM in each case. The TGI with OVCAR-8 ovarian, in the test on PC-3 prostate, with SF-295 CNS, with SK-MEL-2 melanoma, with U251 CNS and in the test on UACC-62 melanoma was > 100 µM throughout.
For `O=C(OCCN=C1c2ccccc2CCc2ccccc21)c1cc([N+](=O)[O-])cc([N+](=O)[O-])c1`, the TGI with A549 NSCLC is > 31.6 µM; with BT-549 breast, > 100 µM; in the test on COLO 205 colon it was > 31.6 µM; in the test on HCT-116 colon, > 31.6 µM; in the test with HCT-15 colon, > 31.6 µM; in the test on K-562 leukemia, > 100 µM. Moreover, the TGI in the test with KM12 colon, with LOX IMVI melanoma, in the test on M14 melanoma, in the test on MDA-MB-231 breast, in the test with OVCAR-3 ovarian and in the test on OVCAR-5 ovarian was > 31.6 µM each time. The TGI with OVCAR-8 ovarian was > 31.6 µM; in the test on PC-3 prostate, > 31.6 µM; with SF-295 CNS, > 31.6 µM; in the test on SK-MEL-2 melanoma it was > 31.6 µM; with U251 CNS, > 100 µM; in the test with UACC-62 melanoma, > 31.6 µM.
In the case of `Cn1c(=O)oc2cc(C(=O)CSC(=S)N3CCCCCC3)ccc21`, the TGI with A549 NSCLC, in the test on BT-549 breast, with COLO 205 colon, in the test with HCT-116 colon, with HCT-15 colon and in the test on K-562 leukemia was > 100 µM each time. The TGI in the test with KM12 colon, in the test with M14 melanoma, in the test with MDA-MB-231 breast, in the test on NCI-H522 lung, with OVCAR-3 ovarian and in the test with OVCAR-5 ovarian was > 100 µM in each case. Moreover, the TGI in the test on OVCAR-8 ovarian, in the test on PC-3 prostate, with SF-295 CNS, with SK-MEL-2 melanoma, in the test on U251 CNS and in the test with UACC-62 melanoma was > 100 µM each time.
Regarding `CCOC(=O)CN1CCNCCN(CC(=O)OCC)CCNCC1`, the TGI in the test on A549 NSCLC, in the test with BT-549 breast, in the test on COLO 205 colon, in the test with HCT-116 colon, in the test on HCT-15 colon and in the test on K-562 leukemia was > 100 µM in each case. Also, the TGI with KM12 colon, with LOX IMVI melanoma, in the test with MDA-MB-231 breast, in the test on NCI-H522 lung, with OVCAR-3 ovarian and with OVCAR-5 ovarian was > 100 µM each time. Also, the TGI in the test with OVCAR-8 ovarian, in the test with PC-3 prostate, in the test with SF-295 CNS, in the test with SK-MEL-2 melanoma, with U251 CNS and in the test with UACC-62 melanoma was > 100 µM in each case.
`CCOC(=O)c1nc2cc(N3CCOCC3)c(F)cc2[nH]c1=O`: the TGI in the test on A549 NSCLC, with BT-549 breast, in the test on COLO 205 colon, in the test on HCT-116 colon, in the test on HCT-15 colon and with K-562 leukemia was > 100 µM each time. The TGI in the test with KM12 colon, in the test on M14 melanoma, in the test on MDA-MB-231 breast, in the test on NCI-H522 lung, in the test on OVCAR-3 ovarian and in the test on OVCAR-5 ovarian was > 100 µM throughout. Besides, the TGI in the test with OVCAR-8 ovarian, in the test on PC-3 prostate, in the test with SF-295 CNS, with SK-MEL-2 melanoma, in the test on U251 CNS and with UACC-62 melanoma was > 100 µM in each case.
With `CNC(=S)/C(=N\Nc1nc[nH]c1C(N)=O)C(N)=S`, the TGI in the test with A549 NSCLC was > 100 µM; in the test with BT-549 breast, > 100 µM; in the test with COLO 205 colon it was 41.1 µM; in the test with HCT-116 colon it was > 100 µM; in the test on HCT-15 colon it was > 100 µM; in the test with KM12 colon it was 24.4 µM. Moreover, the TGI with LOX IMVI melanoma is > 37.9 µM; in the test with M14 melanoma, > 100 µM; in the test with MDA-MB-231 breast, > 24 µM; in the test on NCI-H522 lung it was > 91.7 µM; in the test with OVCAR-3 ovarian it was > 50.2 µM; in the test with OVCAR-5 ovarian it was > 100 µM. For the same molecule, the TGI in the test on OVCAR-8 ovarian is > 57.5 µM; with PC-3 prostate, > 100 µM; in the test with SF-295 CNS, 41.6 µM; in the test on SK-MEL-2 melanoma it was > 82.3 µM; in the test on U251 CNS it was > 82.8 µM; with UACC-62 melanoma it was > 92.8 µM.
